Assay results published in US9999222B2, “Herbicidal combination comprising azines” (BASF SE, priority 2014, dated 2018).
Where two headings read alike, the source gives them in different places.

How the values were obtained:
Test in all cases: Greenhouse test, pre-emergence treatment
ALOMY = assay type: in vivo, Alopecurus myosuroides; conditions: Alopecurus myosuroides, pre-emergence, 480 h, pre-emergence, read-out: observed % activity 20 DAT
How it was run: (§1)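 Damage was rated on a 0-100 scale, with 100 meaning no emergence or full destruction of aerial parts. Observed combination effects were set against the additive Colby expectation E=X+Y−(X·Y/100). Spray liquor was water-based, from 10% emulsion concentrates, applied pre-emergence right after sowing in loamy sand (about 3.0% humus). Plants were held at 10-25 °C or 20-35 °C for 2 to 4 weeks.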

ECHCG = assay type: in vivo, Echinocloa crus-galli; conditions: Echinochloa crus-galli, 480 h, use rate 31.25 g ai/ha, read-out: observed % activity 20 DAT
How it was run: as §1

POLCO = assay type: in vivo, Polygonum convolvulus; conditions: Fallopia convolvulus, 480 h, pre-emergence, read-out: observed % activity 20 DAT
How it was run: as §1

SETFA = assay type: in vivo, Setaria faberi
How it was run: as §1

AVEFA = assay type: in vivo, Avena fatua; conditions: pre-emergence
Description: (§2) The culture containers used were plastic flowerpots containing loamy sand with approximately 3.0% of humus as the substrate. The seeds of the test plants were sown separately for each species.
(§3) For the pre-emergence treatment, the active ingredients, which had been suspended or emulsified in water, were applied directly after sowing by means of finely distributing nozzles. The containers were irrigated gently to promote germination and growth and subsequently covered with transparent plastic hoods until the plants had rooted. This cover caused uniform germination of the test plants, unless this had been impaired by the active ingredients.
(§4) Depending on the species, the plants were kept at 10-25° C. or 20-35° C., respectively.
(§5) The test period extended over 2 to 4 weeks. During this time, the plants were tended, and their response to the individual treatments was evaluated.
(§6) Evaluation was carried out using a scale from 0 to 100. 100 means no emergence of the plants, or complete destruction of at least the aerial moieties, and 0 means no damage, or normal course of growth. A moderate herbicidal activity is given at values of at least 60, a good herbicidal activity is given at values of at least 70, and a very good herbicidal activity is given at values of at least 85.
(§7) The respective stated components a and b, and if appropriate, c were formulated as a 10% by weight strength emulsion concentrate and, with addition of the amount of solvent system, introduced into the spray liquor used for applying the active compound.
(§8) In the examples, the solvent used was water.
(§9) In the examples below, using the method of S. R. Colby (1967) “Calculating synergistic and antagonistic responses of herbicide combinations”, Weeds 15, p. 22ff., the value E, which is expected if the activity of the individual active compounds is only additive, was calculated. E=X+Y−(X·Y/100) where • X=percent activity using active compound a at an application rate A; • Y=percent activity using active compound b at an application rate B; • E=expected activity (in %) by a+b at application rates A+B.
(§10) If the value found experimentally is higher than the value E calculated according to Colby, a synergistic effect is present.

BRADC = assay type: in vivo, Brachiaria decumbens; conditions: Urochloa decumbens, pre-emergence, 480 h, pre-emergence, read-out: observed % activity 20 DAT
Description: as §2, §3, §4, §5, §6, §7, §8, §9, §10

EPHHL = assay type: in vivo, Euphorbia heterophylla; conditions: Euphorbia heterophylla, pre-emergence, 480 h, pre-emergence, 250 g ai/ha; read-out: observed % activity 20 DAT
How it was run: as §1

GERPU = assay type: in vivo, Geranium pusillum; conditions: Geranium pusillum, pre-emergence, 480 h, pre-emergence, read-out: observed % activity 20 DAT
How it was run: as §1

KCHSC = assay type: in vivo, Kochia scoparia; conditions: Bassia scoparia, 480 h, pre-emergence, read-out: observed % activity 20 DAT
How it was run: as §1

LOLMU = assay type: in vivo, Lolium multiflorum; conditions: Lolium multiflorum, pre-emergence, 480 h, pre-emergence, read-out: observed % activity 20 DAT
How it was run: as §1

PHACA = assay type: in vivo, Phalaris canariensis; conditions: pre-emergence, pre-emergence
How it was run: as §1

COCC(C)N(C(=O)CCl)c1c(C)csc1C (stereo not shown) [Dimethenamid, dimethenamid]
pest or weed control at 125 g/ha (ALOMY; 125 g ai/ha): 25%
pest or weed control at 500 g/ha (ALOMY; 500 g ai/ha): 75%
pest or weed control at 62.5 g/ha (ALOMY; use rate 62.5 g ai/ha, 20 DAT): 0%
inhibition at 62.5 g/ha (ALOMY; use rate 62.5 g ai/ha): 0%
inhibition at 125 g/ha (ALOMY; use rate 125 g ai/ha): 35%
pest or weed control at 31.25 g/ha (ECHCG; 20 DAT): 98%
inhibition at 31.25 g/ha (ECHCG): 98%
pest or weed control at 31.25 g/ha (POLCO; use rate 31.25 g ai/ha, 20 DAT): 0%
pest or weed control at 62.5 g/ha (POLCO; use rate 62.5 g ai/ha, 20 DAT): 0%
pest or weed control at 125 g/ha (POLCO; use rate 125 g ai/ha, 20 DAT): 0%
inhibition at 31.25 g/ha (POLCO; use rate 31.25 g ai/ha): 0%
inhibition at 62.5 g/ha (POLCO; use rate 62.5 g ai/ha): 0%
inhibition at 125 g/ha (POLCO; use rate 125 g ai/ha): 0%
inhibition at 15.625 g/ha (SETFA; Setaria faberi, 480 h, use rate 15.625 g ai/ha, read-out: observed % activity 20 DAT): 85%
inhibition at 31.25 g/ha (SETFA; Setaria faberi, 480 h, use rate 31.25 g ai/ha, read-out: observed % activity 20 DAT): 98%
observed % activity 20 DAT (SETFA; use rate 31.25 g ai/ha, 20 DAT): 98%
observed % activity 20 DAT (AVEFA; 55 g ai/ha): 95%
observed % activity 20 DAT (AVEFA; 250 g ai/ha): 85%
pest or weed control at 125 g/ha (BRADC; 125 g ai/ha): 98%
pest or weed control at 250 g/ha (BRADC; 250 g ai/ha): 98%
pest or weed control at 500 g/ha (BRADC; 500 g ai/ha): 98%
pest or weed control at 250 g/ha (EPHHL): 25%
pest or weed control at 250 g/ha (GERPU; 250 g ai/ha): 98%
inhibition at 15.625 g/ha (GERPU; use rate 15.625 g ai/ha): 50%
inhibition at 31.25 g/ha (GERPU; use rate 31.25 g ai/ha): 70%
pest or weed control at 62.5 g/ha (GERPU; use rate 62.5 g ai/ha, 20 DAT): 85%
inhibition at 62.5 g/ha (GERPU; use rate 62.5 g ai/ha): 85%
pest or weed control at 125 g/ha (GERPU; use rate 125 g ai/ha, 20 DAT): 95%
pest or weed control at 250 g/ha (KCHSC; 250 g ai/ha): 75%
pest or weed control at 31.25 g/ha (KCHSC; use rate 31.25 g ai/ha, 20 DAT): 0%
pest or weed control at 62.5 g/ha (KCHSC; use rate 62.5 g ai/ha, 20 DAT): 0%
pest or weed control at 125 g/ha (KCHSC; use rate 125 g ai/ha, 20 DAT): 0%
inhibition at 31.25 g/ha (KCHSC; use rate 31.25 g ai/ha): 0%
inhibition at 62.5 g/ha (KCHSC; use rate 62.5 g ai/ha): 0%
inhibition at 125 g/ha (KCHSC; use rate 125 g ai/ha): 0%
pest or weed control at 125 g/ha (LOLMU; 125 g ai/ha): 85%
pest or weed control at 250 g/ha (LOLMU; 250 g ai/ha): 98%
pest or weed control at 15.625 g/ha (LOLMU; use rate 15.625 g ai/ha, 20 DAT): 0%
inhibition at 31.25 g/ha (LOLMU; use rate 31.25 g ai/ha): 55%
pest or weed control at 62.5 g/ha (LOLMU; use rate 62.5 g ai/ha, 20 DAT): 85%
inhibition at 62.5 g/ha (LOLMU; use rate 62.5 g ai/ha): 85%
pest or weed control at 125 g/ha (LOLMU; use rate 125 g ai/ha, 20 DAT): 95%
inhibition at 125 g/ha (LOLMU; use rate 125 g ai/ha): 95%
pest or weed control at 125 g/ha (PHACA; Phalaris canariensis, 480 h, 125 g ai/ha, read-out: observed % activity 20 DAT): 70%
pest or weed control at 500 g/ha (PHACA; Phalaris canariensis, 480 h, 500 g ai/ha, read-out: observed % activity 20 DAT): 98%
pest or weed control at 15.625 g/ha (PHACA; Phalaris canariensis, 480 h, use rate 15.625 g ai/ha, 20 DAT, read-out: observed % activity 20 DAT): 10%
pest or weed control at 31.25 g/ha (PHACA; Phalaris canariensis, 480 h, use rate 31.25 g ai/ha, 20 DAT, read-out: observed % activity 20 DAT): 55%
inhibition at 31.25 g/ha (PHACA; Phalaris canariensis, 480 h, use rate 31.25 g ai/ha, read-out: observed % activity 20 DAT): 55%
pest or weed control at 62.5 g/ha (PHACA; Phalaris canariensis, 480 h, use rate 62.5 g ai/ha, 20 DAT, read-out: observed % activity 20 DAT): 65%
pest or weed control at 125 g/ha (PHACA; Phalaris canariensis, 480 h, use rate 125 g ai/ha, 20 DAT, read-out: observed % activity 20 DAT): 80%
inhibition at 125 g/ha (PHACA; Phalaris canariensis, 480 h, use rate 125 g ai/ha, read-out: observed % activity 20 DAT): 80%
observed % activity 20 DAT (PHACA; 125 g ai/ha): 70%
